9 compounds from ChEMBL document CHEMBL1821712, “Antimalarial β-carbolines from the New Zealand ascidian Pseudodistoma opacum” (J Nat Prod, 2011) can be followed below.

The term IC50 denotes the concentration at which inhibition is half-maximal. Read a high IC50 as a need for much substance.

The test system of test [1] is Plasmodium falciparum. Put plainly: Antiparasitic activity against Plasmodium falciparum K1 IEF stage forms incubated for 72 hrs by Alamar Blue staining based fluorometric assay. Particulars: K1, 72 h. For orientation: Alamar Blue is a resazurin reagent that responds to reducing activity.
For test [2], the system named is Trypanosoma brucei rhodesiense. Put plainly: Antiparasitic activity against Trypanosoma brucei rhodesiense STIB 900 trypomastigotes stage forms incubated for 72 hrs by Alamar blue staining based fluorometric assay. The format is functional, organism-based. Particulars: STIB 900, 72 h.
Another test has as its system L6. Put plainly: Cytotoxicity against rat L6 cells incubated for 72 hrs by Alamar Blue staining based fluorometric assay. Type of test: cell-based. The following applies: L6, 72 h.
Another test concerns Trypanosoma cruzi. Put plainly: Antiparasitic activity against Trypanosoma cruzi Tulahuen C4 amastigotes stage forms incubated for 96 hrs by beta-galactosidase reporter gene assay. Type of test: functional, organism-based. Particulars: Tulahuen C4, 96 h. (Reporter assays use an easily measured gene product as a stand-in for the process of interest.)
The test system of a further test is Leishmania donovani. Put plainly: Antiparasitic activity against Leishmania donovani MHOM/ET/67/L82 amastigotes/axenic stage forms incubated for 72 hrs by Alamar Blue staining based fluorometric assay. Particulars: MHOM/ET/67/L82, 72 h. Type of test: functional, organism-based.
In test [3] the test system is Plasmodium falciparum. Put plainly: Antiparasitic activity against chloroquine-sensitive Plasmodium falciparum 3D7. The format is functional, organism-based.
Test [4] deals with Plasmodium falciparum. Put plainly: Antiparasitic activity against chloroquine-resistant Plasmodium falciparum Dd2. Type of test: functional, organism-based.

As for `N=C(N)NCCCCc1nccc2c1[nH]c1ccccc12`, the half-inhibitory concentration (IC50) in the test on Plasmodium falciparum [1] was 6.4 µM; in test [2], 12 µM; in the test with L6 it was 84 µM; in the test with Trypanosoma cruzi it was 110 µM; with Leishmania donovani it was > 200 µM.

Take `N=C(N)NCCCc1nccc2c1[nH]c1ccccc12`: the concentration for half-maximal inhibition (IC50) is 7.8 µM in the test with Plasmodium falciparum [1]; 7.7 µM in test [2]; 101 µM with L6; 130 µM with Trypanosoma cruzi; > 200 µM in the test with Leishmania donovani.

For the compound `O=C1c2ccccc2C(=O)N1CCCC1NCCc2c1[nH]c1ccccc21` (stereo not given), the IC50 was 14 µM with Plasmodium falciparum [1]; 17 µM in test [2]; 110 µM in the test with L6; 51 µM with Trypanosoma cruzi; 150 µM in the test with Leishmania donovani.

Turning to `N=C(N)NCCC[C@H]1NCCc2c1[nH]c1cc(Br)ccc21`, the half-maximal inhibitory concentration (IC50) in the test with Plasmodium falciparum [3] worked out at 3.5 µM; with Plasmodium falciparum [4] it was 5.4 µM.

Turning to `O=C(Cn1ccnc1[N+](=O)[O-])NCc1ccccc1` [BENZNIDAZOLE], the IC50 in the test with Trypanosoma cruzi stood at 1.8 µM.

For the compound `CCCCCCCCCCCCCCCCOP(=O)([O-])OCC[N+](C)(C)C` [MILTEFOSINE], the IC50 with Leishmania donovani amounted to 0.53 µM.

In the case of `N=C(N)NCCCCc1nccc2c1[nH]c1cc(Br)ccc12` [OPACALINE A], the half-inhibitory concentration (IC50) was 2.5 µM in the test with Plasmodium falciparum [1]; 30 µM in test [2]; 79 µM with L6; 86 µM in the test on Trypanosoma cruzi; 130 µM with Leishmania donovani.

For `N=C(N)NCCCCc1nccc2c3ccc(Br)cc3n(O)c12` [OPACALINE B], the 50% inhibitory concentration (IC50) stood at 4.5 µM in the test on Plasmodium falciparum [1]; 27 µM in test [2]; 120 µM in the test on L6; 107 µM with Trypanosoma cruzi; 101 µM with Leishmania donovani.

Compound `COc1cc([C@@H]2c3cc4c(cc3[C@H](O)[C@H]3COC(=O)[C@H]23)OCO4)cc(OC)c1OC` [PODOFILOX] returned an IC50 in the test with L6 of 0.019 µM.
